In patent publication US20250262186A1 (SANOFI, priority 2022, published 2025):
Counter-ions that a name gives are not always drawn.

What follows are compounds tested against T1, ERα (Homo sapiens, UniProt P03372) (assay: Estrogen receptor degradation activity: breast cancer cell ERα in cell western assay in MCF7 cells). Conditions: 0.3 μM, 4 hours, relative to fulvestrant 0.1 μM positive control.
T1 construct: made using a breast cancer cell ERα in cell western assay; host or cells: MCF7
T1 sequence (P03372 1-595): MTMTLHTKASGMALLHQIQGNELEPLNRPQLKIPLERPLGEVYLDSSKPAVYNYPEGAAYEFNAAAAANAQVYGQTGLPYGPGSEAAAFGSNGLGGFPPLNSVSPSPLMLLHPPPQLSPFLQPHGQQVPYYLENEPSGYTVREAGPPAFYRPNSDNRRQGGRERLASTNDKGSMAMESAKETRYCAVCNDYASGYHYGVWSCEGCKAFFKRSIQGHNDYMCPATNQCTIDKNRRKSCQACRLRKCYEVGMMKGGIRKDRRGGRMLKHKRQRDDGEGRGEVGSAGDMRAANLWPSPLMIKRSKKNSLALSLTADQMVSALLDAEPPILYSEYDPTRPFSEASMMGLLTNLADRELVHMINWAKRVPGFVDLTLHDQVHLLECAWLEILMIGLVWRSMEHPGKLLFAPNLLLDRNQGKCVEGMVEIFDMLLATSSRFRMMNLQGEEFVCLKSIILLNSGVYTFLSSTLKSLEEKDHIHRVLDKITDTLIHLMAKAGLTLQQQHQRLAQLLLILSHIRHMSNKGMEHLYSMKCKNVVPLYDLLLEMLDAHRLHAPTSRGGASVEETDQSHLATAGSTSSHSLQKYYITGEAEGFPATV
Assay type: cell-based
Protocol: Said test involves measuring the in vitro degradation activity of the compounds of the Table 1a.
The measurements of the degradation activities were made using a breast cancer cell ERα in cell western assay as described hereunder.
MCF7 cells (ATCC) were seeded in 384 wells microplate (collagen coated) at a concentration of 10000 cells/30 μL per well in red phenol free MEM alpha medium (invitrogen) containing 5% charcoal dextran striped FBS. The following day, 9 points serial 1:5 dilution of each compound was added to the cells in 2.5 μL at final concentrations ranging from 0.3-0.0000018 μM (in table 2), or 0.1 μM for fulvestrant (using as positive control). At 4 hours post compound addition the cells were fixed by adding 25 μL of formalin (final concentration 5% formalin containing 0.1% triton) for 10 minutes at room temperature and then washed twice with PBS. Then, 50 μL of LI-COR blocking buffer containing 0.1% Triton was added to plate for 30 minutes at room temperature. LI-COR blocking buffer was removed and cells were incubated overnight at cold room with 50 μL anti-ER rabbit monoclonal antibody (Thermo scientific MA1-39540) diluted at 1:1000 in LI-COR blocking buffer containing 0.1% tween-20. Wells which were treated with blocking buffer but no antibody were used as background control. Wells were washed twice with PBS (0.1% tween-20) and incubated at 37° C. for 60 minutes in LI-COR (0.1% tween-20) containing goat anti-rabbit antibody Alexa 488 (1:1000) and Syto-64 a DNA dye (2 μM final concentration). Cells were then washed 3 times in PBS and scanned in ACUMEN explorer (TTP-Labtech). Integrated intensities in the green fluorescence and red fluorescence were measured to determine the levels of ERα and DNA respectively.
The degradation activity with respect to estrogen receptors in this test is given by the concentration which degrades 50% of the estrogen receptor (or IC50) in nM.
The % of ERα levels decrease were determined as follows: % inhibition=100*(1−(sample−fulvestrant: DMSO−fulvestrant)).

Row | SMILES | % Degradation At 0.3 μM
1 | Cl.O=C(O)c1ccc2c(c1)CCCC(c1ccccc1Cl)=C2c1cccc(O[C@@H]2CCN(CCCF)C2)c1F [Compound 20, (R)-8-(2-chlorophenyl)-9-(2-fluoro-3-((1-(3-fluoropropyl)pyrrolidin-3-yl)oxy)phenyl)-6,7-dihydro-5H-benzo[7]annulene-3-carboxylic acid, hydrochloride] | 88%
2 | Cl.O=C(O)c1ccc2c(c1)CCCC(c1ccc(Cl)cc1Cl)=C2c1cccc(O[C@@H]2CCN(CCCF)C2)c1F [Compound 21, (R)-8-(2,4-dichlorophenyl)-9-(2-fluoro-3-((1-(3-fluoropropyl)pyrrolidin-3-yl)oxy)phenyl)-6,7-dihydro-5H-benzo[7]annulene-3-carboxylic acid, hydrochloride] | 85%
3 | Cc1ccc(O[C@@H]2CCN(CCCF)C2)cc1C1=C(c2ccccc2Cl)CCCc2cc(C(=O)O)ccc21 [Compound 23, (R)-8-(2-chlorophenyl)-9-(5-((1-(3-fluoropropyl)pyrrolidin-3-yl)oxy)-2-methylphenyl)-6,7-dihydro-5H-benzo[7]annulene-3-carboxylic acid] | 84%
4 | Cc1ccc(O[C@@H]2CCN(CCCF)C2)cc1C1=C(c2ccc(Cl)cc2Cl)CCCc2cc(C(=O)O)ccc21 [Compound 24] | 61%
5 | Cl.O=C(O)c1ccc2c(c1)CCCC(c1ccccc1)=C2c1cc(O[C@@H]2CCN(CCCF)C2)ccc1F [Compound 25, (R)-9-(2-fluoro-5-((1-(3-fluoropropyl)pyrrolidin-3-yl)oxy)phenyl)-8-phenyl-6,7-dihydro-5H-benzo[7]annulene-3-carboxylic acid, hydrochloride] | 77%
6 | O=C(O)c1ccc2c(c1)CCCC(c1ccccc1Cl)=C2c1cc(O[C@@H]2CCN(CCCF)C2)ccc1F [Compound 26, (R)-8-(2-chlorophenyl)-9-(2-fluoro-5-((1-(3-fluoropropyl)pyrrolidin-3-yl)oxy)phenyl)-6,7-dihydro-5H-benzo[7]annulene-3-carboxylic acid, hydrochloride] | 90%
7 | Cl.O=C(O)c1ccc2c(c1)CCCC(c1ccc(Cl)cc1Cl)=C2c1cc(O[C@@H]2CCN(CCCF)C2)ccc1F [Compound 27, (R)-8-(2,4-dichlorophenyl)-9-(2-fluoro-5-((1-(3-fluoropropyl)pyrrolidin-3-yl)oxy)phenyl)-6,7-dihydro-5H-benzo[7]annulene-3-carboxylic acid hydrochloride] | 89%
8 | Cl.O=C(O)c1ccc2c(c1)CCCC(c1ccccc1Cl)=C2c1cccc(OC2CN(CCCF)C2)c1 [Compound 29, 8-(2-chlorophenyl)-9-(3-((1-(3-fluoropropyl)azetidin-3-yl)oxy)phenyl)-6,7-dihydro-5H-benzo[7]annulene-3-carboxylic acid hydrochloride] | 57%
9 | Cl.O=C(O)c1ccc2c(c1)CCCC(c1ccc(Cl)cc1Cl)=C2c1cccc(OC2CN(CCCF)C2)c1 [Compound 30, 8-(2,4-dichlorophenyl)-9-(3-((1-(3-fluoropropyl)azetidin-3-yl)oxy)phenyl)-6,7-dihydro-5H-benzo[7]annulene-3-carboxylic acid hydrochloride] | 55%
10 | O=C(O)c1ccc2c(c1)CCCC(c1ccc(Cl)cc1Cl)=C2c1cccc(CC2CN(CCCF)C2)c1 [Compound 31, 8-(2,4-dichlorophenyl)-9-(3-((1-(3-fluoropropyl)azetidin-3-yl)methyl)phenyl)-6,7-dihydro-5H-benzo[7]annulene-3-carboxylic acid] | 58%
11 | O=C(O)c1ccc2c(c1)CCCC(c1ccc(Cl)cc1Cl)=C2c1cccc(NC2CN(CCCF)C2)c1 [Compound 32, 8-(2,4-dichlorophenyl)-9-(3-((1-(3-fluoropropyl)azetidin-3-yl)amino)phenyl)-6,7-dihydro-5H-benzo[7]annulene-3-carboxylic acid] | 70%
